# Publication PMC6887723, “Design and Synthesis of 4-(Heterocyclic Substituted Amino)-1H-Pyrazole-3-Carboxamide Derivatives and Their Potent Activity against Acute Myeloid Leukemia (AML)” (International Journal of Molecular Sciences, 2019)
# Values joined by “and” are separate entries in the source; they are usually repeats but may differ in a detail not shown here. Identical values can stand only once.
# Key:
# [1] = target: T1, CDK2 (Homo sapiens, UniProt P24941); test: CDK2 kinase activity assay (Hot-Spot); format: biochemical; conditions: 10 μM ATP; mean ± SD, three independent experiments
# T1 construct: purchased Reaction Biology Corp
# Method: (§1) Activities of kinases were determined using Hot-SpotSM kinase assay which was performed by Reaction Biology Corp. (Malvern PA, USA) as described previously.
# [2] = target: T2, FLT3 (Homo sapiens, UniProt P36888); test: FLT3 kinase activity assay (Hot-Spot); format: biochemical; conditions: 10 μM ATP; mean ± SD, three independent experiments
# T2 construct: purchased Reaction Biology Corp
# T2 sequence (P36888 27-993): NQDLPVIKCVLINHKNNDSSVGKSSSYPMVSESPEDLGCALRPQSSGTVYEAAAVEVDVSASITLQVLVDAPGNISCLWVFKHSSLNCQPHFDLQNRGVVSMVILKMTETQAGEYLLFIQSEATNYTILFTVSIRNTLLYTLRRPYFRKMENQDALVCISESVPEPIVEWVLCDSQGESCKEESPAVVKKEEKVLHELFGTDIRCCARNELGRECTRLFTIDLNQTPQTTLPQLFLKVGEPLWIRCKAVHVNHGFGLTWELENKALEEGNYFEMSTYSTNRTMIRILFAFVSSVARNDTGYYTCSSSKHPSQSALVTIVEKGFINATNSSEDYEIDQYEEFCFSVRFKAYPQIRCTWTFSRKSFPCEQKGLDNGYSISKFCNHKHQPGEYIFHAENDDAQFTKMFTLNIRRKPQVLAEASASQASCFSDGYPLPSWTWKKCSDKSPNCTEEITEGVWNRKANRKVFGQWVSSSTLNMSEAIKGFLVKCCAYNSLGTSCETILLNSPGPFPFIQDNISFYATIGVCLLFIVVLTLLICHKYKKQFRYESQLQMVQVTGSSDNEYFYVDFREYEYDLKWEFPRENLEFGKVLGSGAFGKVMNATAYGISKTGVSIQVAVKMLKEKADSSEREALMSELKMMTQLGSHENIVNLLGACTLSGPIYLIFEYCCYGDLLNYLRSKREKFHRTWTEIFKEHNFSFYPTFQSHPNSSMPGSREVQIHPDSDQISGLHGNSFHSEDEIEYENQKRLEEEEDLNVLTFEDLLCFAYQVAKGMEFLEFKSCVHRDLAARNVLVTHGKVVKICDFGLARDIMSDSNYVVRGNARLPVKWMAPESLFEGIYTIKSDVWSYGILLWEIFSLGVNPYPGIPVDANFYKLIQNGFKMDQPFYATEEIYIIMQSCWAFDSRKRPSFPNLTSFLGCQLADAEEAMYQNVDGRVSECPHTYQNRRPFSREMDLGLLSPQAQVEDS
# Method: as §1
# [3] = target: T3, CDK4 (Homo sapiens, UniProt P11802); test: CDK4 kinase activity assay (Hot-Spot); format: biochemical; conditions: 10 μM ATP; mean ± SD, three independent experiments
# T3 construct: purchased Reaction Biology Corp
# T3 sequence (P11802 whole entry): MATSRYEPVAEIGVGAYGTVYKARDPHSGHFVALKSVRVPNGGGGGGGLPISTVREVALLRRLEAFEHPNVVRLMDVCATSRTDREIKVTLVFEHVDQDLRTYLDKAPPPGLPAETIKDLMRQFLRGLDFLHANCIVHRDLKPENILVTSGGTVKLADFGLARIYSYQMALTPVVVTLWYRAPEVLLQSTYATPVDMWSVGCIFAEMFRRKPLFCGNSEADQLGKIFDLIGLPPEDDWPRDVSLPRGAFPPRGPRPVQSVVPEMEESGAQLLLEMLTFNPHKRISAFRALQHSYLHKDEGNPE
# T3 sequence (P24385 whole entry partner): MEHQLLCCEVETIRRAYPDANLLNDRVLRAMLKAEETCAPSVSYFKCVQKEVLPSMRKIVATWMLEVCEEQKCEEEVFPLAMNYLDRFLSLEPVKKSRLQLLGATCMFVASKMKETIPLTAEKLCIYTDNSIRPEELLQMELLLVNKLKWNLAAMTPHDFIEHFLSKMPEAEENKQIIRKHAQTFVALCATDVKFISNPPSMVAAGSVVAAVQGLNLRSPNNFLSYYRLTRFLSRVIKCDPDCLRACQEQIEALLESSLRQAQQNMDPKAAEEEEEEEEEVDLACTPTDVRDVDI
# Method: as §1
# [4] = system: MV4-11; test: Cell growth inhibition assay (CellTiter-Glo); format: cell-based; conditions: Homo sapiens, 72 h, highest test concentration 1 μM, mean ± SD, three independent experiments
# Method: The human AML cell line MV4-11 was purchased from the American Type Culture Collection (ATCC) (Manassas, VA, USA). MV4-11 was cultured in IMDM media (Corning, Crown Bioscience Inc., Taicang, China) with 10% FBS and supplemented with 2% L-glutamine and 1% pen/strep. The MV4-11 cell line was maintained in culture media at 37 °C with 5% CO2. The effects of target compounds on MV4-11 proliferation was performed by Crown Bioscience Inc. Cells were grown in 96-well culture plates (10,000/well). The compounds of various concentrations were added into the plates. Cell proliferation was determined after treatment with compounds for 72 h. Cell viability was measured using the CellTiter-Glo assay (Promega, Crown Bioscience Inc., Taicang, China) according to the manufacturer’s instructions, and luminescence was measured in a multilabel reader (Envision2014, PerkinElmer, Crown Bioscience Inc., Taicang, China). Data were normalized to the control group (DMSO) and represented by the mean of three independent measurements with standard error of <20%. IC50 values were calculated using Prism 5.0 (GraphPad Software, San Diego, CA, USA).
# [5] = system: BaF3 (FLT3 (ITD-F691L)); test: Antiproliferative activity in BaF3 cells transformed with FLT3-ITD-F691L; format: cell-based; conditions: Mus musculus, Table S2
Structure (SMILES),IC50 [1],IC50 [2] [nM],IC50 [3],melting point [°C],IC50 [4] [nM],IC50 [5] [nM]
O=C(Nc1ccccc1)c1n[nH]cc1Nc1ncnc2[nH]ccc12 [Compound 3a],0.2 ± 0.01 nM,5.1 ± 0.46,34.1 ± 0.94 nM,,,
O=C(Nc1ccncc1)c1n[nH]cc1Nc1ncnc2[nH]ccc12 [Compound 3b],4.31 ± 0.91 nM,5.83 ± 0.74,54.2 ± 1.26 nM,,,
CC(C)(C)OC(=O)N1CCC(NC(=O)c2n[nH]cc2Nc2ncnc3[nH]ccc23)CC1 [Compound 3c],32.8 ± 1.34 nM,88.8 ± 1.06,87.1 ± 1.26 nM,268 to 269,,
O=C(NC1CCNCC1)c1n[nH]cc1Nc1ncnc2[nH]ccc12 [Compound 3d],63.2 ± 0.91 nM,74.3 ± 1.21,77.4 ± 1.1 nM,,,
O=C(Nc1ccc(C(=O)N2CCOCC2)cc1)c1n[nH]cc1Nc1ncnc2sccc12 [Compound 8a],10.4 ± 0.41 nM,17.8 ± 0.89,33 ± 0.94 nM,243 to 244,,
CN1CCN(C(=O)c2ccc(NC(=O)c3n[nH]cc3Nc3ncnc4sccc34)cc2)CC1 [Compound 8b],8.42 ± 0.52 nM,19.18 ± 0.18,30.1 ± 0.99 nM,280 to 281,35.2 ± 0.83,
CN1CCCN(c2ccc(NC(=O)c3n[nH]cc3Nc3ncnc4sccc34)cc2)CC1 [Compound 8c],3.51 ± 0.19 nM,0.176 ± 0.09,2.41 ± 0.21 nM,223 to 224,4.28 ± 0.35,
CN1CCCN(c2ccc(NC(=O)c3n[nH]cc3Nc3ncnc4[nH]ccc34)cc2)CC1 [Compound 8d],2.32 ± 0.014 nM,0.262 ± 0.01,5.32 ± 0.31 nM,263 to 264,9.5 ± 0.01,
CN1CCCN(c2cccc(NC(=O)c3n[nH]cc3Nc3ncnc4[nH]ccc34)c2)CC1 [Compound 8e],5.49 ± 0.42 nM,2.71 ± 0.31,51 ± 0.88 nM,215 to 216,38.3 ± 1.21,
CN1CCCN(c2cccc(NC(=O)c3n[nH]cc3Nc3ncnc4sccc34)c2)CC1 [Compound 8f],31.7 ± 0.55 nM,8.07 ± 0.21,67.3 ± 1.09 nM,> 300,54.1 ± 1.73,
O=C(Nc1ccc(N2CCOCC2)cc1)c1n[nH]cc1Nc1ncnc2[nH]ccc12 [Compound 8g],3.74 ± 0.16 nM,1.945 ± 0.013,10.6 ± 0.24 nM,303 to 304,16 ± 0.43,
O=C(Nc1ccc(N2CCNCC2)cc1)c1n[nH]cc1Nc1ncnc2[nH]ccc12 [Compound 8h],0.282 ± 0.013 nM,0.038 ± 0.001,1.19 ± 0.09 nM,304 to 305,7.3 ± 0.33,
O=C(Nc1ccc(N2CC3CC2CN3)cc1)c1n[nH]cc1Nc1ncnc2sccc12 (centres unmarked) [Compound 8i],24.5 ± 0.57 nM,3.24 ± 0.14,9.17 ± 0.33 nM,,27.2 ± 0.43,
"O=C(Nc1ccc(N2CC3CC2CN3)cc1)c1n[nH]cc1Nc1ncnc2[nH]ccc12 (centres unmarked) [Compound 8j, N-(4-(2,5-Diazabicyclo[2.2.1]heptan-2-yl)phenyl)-4-((7 H-pyrrolo[2,3-d]pyrimidin-4-yl)amino)-1H-pyrazole-3-carboxamide]",9.64 ± 0.46 nM,2.81 ± 0.11,17.8 ± 0.82 nM,248 to 249,21.4 ± 0.56,
"O=C(Nc1ccc(N2CCNCC2)cn1)c1n[nH]cc1Nc1ncnc2sccc12 [Compound 8k, N-(5-(Piperazin-1-yl)pyridin-2-yl)-4-(thieno[2,3-d]pyrimidin-4-ylamino)-1H-pyrazole-3-carboxamide]",315.2 ± 2.3 nM,6.03 ± 0.16,22.3 ± 0.92 nM,> 300,51.1 ± 1.34,
"O=C(Nc1ccc(N2CCNCC2)cn1)c1n[nH]cc1Nc1ncnc2[nH]ccc12 [Compound 8l, 4-((7H-Pyrrolo[2,3-d]pyrimidin-4-yl)amino)-N-(5-(piperazin-1-yl)pyridin-2-yl)-1H-pyrazole-3-carboxamide]",157 ± 3.22 nM,13.8 ± 0.37,23.1 ± 0.55 nM,288 to 290,134 ± 1.64,
O=C(Nc1ccc(N2CCNCC2)cn1)c1n[nH]cc1Nc1ncnc2sc3c(c12)CCC3 [Compound 8n],98.7 ± 1.33 nM,1.88 ± 0.09,4.85 ± 0.2 nM,,19.9 ± 0.74,
O=C(Nc1ccc(N2CCNCC2)cn1)c1n[nH]cc1Nc1ncnc2sc3c(c12)CCCCC3 [Compound 8o],109.2 ± 1.01 nM,8.28 ± 0.12,1.81 ± 0.023 nM,,45.4 ± 1.07,
O=C(Nc1ccc(N2CCNCC2)cn1)c1n[nH]cc1Nc1ncnc2sc3c(c12)CCCC3 [Compound 8p],86.4 ± 1.36 nM,7.45 ± 0.19,3.81 ± 0.26 nM,266 to 267,,
O=C(Nc1ccc(N2CCNCC2)cn1)c1n[nH]cc1Nc1ncnc2c1CCC2 [Compound 8q],509 ± 10.3 nM,20.2 ± 0.35,123.4 ± 1.09 nM,> 290,458 ± 9.2,
O=C(Nc1ccc(N2CCOCC2)cc1)c1n[nH]cc1Nc1ncnc2sc3c(c12)CCCC3 [Compound 8r],9.29 ± 0.64 nM,3.8 ± 0.1,24.9 ± 0.29 nM,267 to 268,3.28 ± 0.19,
O=C(Nc1ccc(N2CC3CC2CN3)cc1)c1n[nH]cc1Nc1ncnc2sc3c(c12)CCC3 (centres unmarked) [Compound 8s],5.43 ± 0.41 nM,0.82 ± 0.003,4.36 ± 0.19 nM,,9.13 ± 0.11,
"CN1CCN(Cc2ccc(NC(=O)c3n[nH]cc3Nc3ncnc4[nH]ccc34)cc2)CC1 [FN-1501, 4-((7H-Pyrrolo[2,3-D]Pyrimidin-4-Yl)Amino)-N-(4-((4-Methylpiperazin-1-Yl)Methyl)Phenyl)-1H-Pyrazole-3-Carboxamide, reference compound]",1.02 nM and 2.33 nM,,0.39 nM and 1.02 nM,,9 ± 0.27,55.9
